From patent US20230151100A1, “Method of Selecting Patients for Treatment with a Combination of an AXL Inhibitor and an Immune Checkpoint Modulator” (BERGENBIO ASA, priority 2020, published 2023)

Legend:
[1] = tested on: Bone marrow derived BMDCs; assay: BMDC co-culture with irradiated KPL9-3-1 tumor cells, IFN beta ELISA; type: cell-based, mouse; conditions: BGB324 40 nM, 24 h; supernatant ELISA; versus DMSO
Description: Bone marrow derived BMDCs (2×10^5) were co-cultured with […] irradiated KPL9-3-1 tumor cells (2×10^6), with or without BGB324 treatment (40 nM). After 24 h, the cell supernatant was collected for analysis. The concentration of […] was measured by VeriKine-HS Mouse IFN Beta Serum ELISA kit (PBL Assay Science, Cat #42410), or VerKine Human IFN Beta ELISA kit (PBL Assay Science, Cat #414101) in accordance with the manufacturer's instructions. The plates were visualized by adding 100 μL of TMB solution and read at 450 nm using the SPECTROstarNano (BMG LABTECH).
The cells were treated with BGB324 or DMSO.

[2] = tested on: KPL9-3-1 tumor cells; assay: KPL9-3-1 subcutaneous allograft tumor growth; type: in vivo, mouse (C57BL/6J); conditions: KPL9-3-1 tumors; BGB324 50 mg/kg oral gavage twice daily, anti-PD-1 10 mg/kg i.p., alone or in combination; 3 weeks
Description: (§1) Control group were treated with control IgG (10 mg/kg) and vehicle (50 mg/kg). Tumor growth was measured every 3 days. […] The ratio of observed cell numbers to random expectation estimated by Roie index through chi-square test. +++ (Roien, P<0.05) represents highly enriched, ++ (1.2≤Ro/e<3, P<0.05) represents enriched, + (0.8≤Ro/e<1.2, P<0.05) represents weakly enriched, − (0<Ro/e<0.8, P<0.05) represents not significant or reduced.
For subcutaneous allografts, 1×10^6 cells in 100 ul phosphate buffered saline (PBS) were injected into the right dorsal flanks of 6-8 wks old mice. For xenografts growing on humanized mice, 1.5×10^6 cells in 100 ul phosphate buffered saline (PBS) were injected into the right dorsal flanks of reconstituted humanized mice.
Tumor bearing mice were randomly assigned into treatment groups when the tumor grew to around 100-150 mm^3. For each treatment group, 5 mice were assigned. 10 mg/kg anti-PD-1 (BioXCell, Cat #BE0146) treatment was given intraperitoneally on day 0, day 4 and day 7 after innoculation. The control group was treated with 10 mg/kg rat IgG2a isotype control (BioX Cell, Cat #BE0089) at the same day of PD-1 treatment, intraperitoneally. For the tumor growth measurement experiment, mice were treated for 3 weeks. […] Tumor volumes were measured by length (a), width (b) and height (h) in every 3 days and calculated as tumor volume=abh. […]

[3] = tested on: OT-1 CD8^+ T cells; assay: BMDC co-culture with OT-1 CD8^+ T cells stimulated with ovalbumin, TCF1 expression by flow cytometry; type: cell-based, mouse; conditions: co-cultures of BMDC with OT-1 CD8^+ T cells stimulated by ovalbumin
[4] = tested on: Kras^G12D, p53 WT STK11^−/− mutant human A549 lung cancer cells; assay: A549 xenografts in humanized mice, tumor volume; type: in vivo; conditions: anti-PD1 10 mg/kg i.p. 3 dosages, BGB324 50 mg/kg oral gavage twice daily for 3 weeks, or both
Description: Human non-small cell lung cancer (NSCLC) cells Kras^G12D, p53 WT STK11^−/− mutant human A549 lung cancer cells were cultured using standard protocols.
Each animal was weighed before cell implantation. Injection of the cells was performed after anesthetizing of the mice. Kras^G12D, p53 WT STK11^−/− mutant human A549 lung cancer cells were implanted subcutaneously in humanized immune-deficient mice.
Mice were treated with either placebo, anti-PD1 therapy (10 mg/kg, intraperitoneal, 3 dosages), BGB324 (50 mg/kg, oral gavage, twice daily for 3 weeks) or a combination of both drugs.

[5] = tested on: Kras^G12D, p53^−/− STK11^−/− mutant (KPL9-3) mouse lung cancer-derived cells; assay: Subcutaneous KPL9-3 tumors in immune-competent mice, tumor volume; type: in vivo, mouse (C57Bl/6); conditions: anti-PD1 10 mg/kg i.p. twice a week for two weeks, BGB324 50 mg/kg oral gavage twice daily, or both
Description: Kras^G12D, p53^−/− mutant (KP9-1) or Kras^G12D, p53^−/− STK11^−/− mutant (KPL9-3) mouse lung cancer-derived cell lines were prepared using standard techniques known in the art. KP9-1 or KPL9-3 cells were propagated at sub-confluence and split on a regular basis.
Each animal was weighed before cell implantation. Injection of cells was performed after anesthetizing of the mice. The cell lines discussed above were injected subcutaneously into immune-competent mice (C57Bl/6 strain).
Mice were treated with either placebo or anti-PD1 therapeutic (200 μg/mouse, intraperitoneal, twice a week for two weeks).Tumor volume was assessed using hand held callipers and mouse weight were followed.
The Kras^G12D, p53^−/− STK11^−/− mutant (KPL9-3) mouse lung cancer-derived cells described above were implanted subcutaneously in immune-competent mice (C57Bl/6 strain) using the same protocol as described above.
Mice were treated with either placebo, anti-PD1 therapeutic (10 mg/kg, intraperitoneal, twice a week for two weeks), BGB324 (50 mg/kg, oral gavage, twice daily) or a combination of both drugs. Tumor volumes were measured.

[6] = tested on: TCF1^+PD-1^+ CD8^+ T cells in KPL9-3-1 tumors; assay: Tumor microenvironment analysis of KPL9-3-1 tumors (flow cytometry, IHC); type: in vivo, mouse (C57BL/6J)
Description: as §1
KPL9-3-1 allograft were implanted into mice as described above. 5 mice were assigned into each treatment group. 10 mg/kg anti-PD-1 (BioXCell, Cat #BE0146) treatment was given intraperitoneally on day 0, day 4 and day 7 after treatment. Control group of PD-1 treatment was treated with 10 mg/kg rat IgG2a isotype control (BioX Cell, Cat #BE0089) at the same day of PD-1 treatment, intraperitoneally. BGB324 were given through oral gavage twice daily, with a dose of 50 mg/kg.
For tumor growth measurement experiment, mice were treated for 3 weeks. For tumor microenvironment analysis, mice were treated for 7 days, when the tumor sizes in each treatment group are within 2-fold differences.Seven days after tumor inoculation, mice were treated with either BGB324 or anti-PD-1 alone, or in combination.

[7] = tested on: CD8^+ T cell clusters in KPL9-3-1 TME; assay: scRNAseq with paired TCR sequencing of CD8^+ T cell clusters in KPL9-3-1 tumors; type: in vivo, mouse; conditions: observed versus expected cell number per cluster
Description: The immune landscape of the tumors from each treatment group was assessed using scRNAseq of immune cells. Sequenced scRNA-seq samples were processed through Cellranger pipelines (v3.1.0). Cellranger count was used to align reads to mouse reference genome (mm10, 2020-A, from 10× Genomics) and generate single cell feature counts for single library.
For scTCR-seq data, TCR reads were aligned to reference genome and TCR annotation was performed using the 10×cellranger vdj pipeline with provided reference (cellranger-vdj-GRCm38-alts-ensemb1-4.0.0). Overall, 94% of T cells in scRNA-seq data were assigned a TCR and more than 70% had at least one full-length productive CDR3 for both TRA and TRB. The clonotype of each T cell was represented by the beta CDR3 sequences, and clone sizes ranged from 1 cell to 580 cells. Cellranger aggr were applied next to aggregate each sample library for grouped analysis with same effective sequencing depth. Seurat (3.2.1) package was used for downstream analysis.
To determine the potential lineage differentiation between those T cell populations with high TCR sharing. Monocle (version 2.0) (PMID: 24658644) was used to investigate transcriptional and developmental trajectories concerning different CD8+ or CD4+ T cell clusters. The data of raw counts together with cluster annotations were taken as input to monocle, and the default parameters were set to run data normalization and dimension reduction. Next, Monocle leaned the kinetics of gene expression by using the reversed graph embedding approach and places each cell along an inferred pseudotime trajectory. According to the assumption that the trajectory has a tree structure, functional “State” is identified based on the segment of the tree-like structure. […]
Treatment enriched cells in each cluster were calculated and compared based on the number of cells observed divided by expected number of cells in each cluster (FIG. 8D).

[8] = tested on: TCF1^+PD-1^+ cells among CD8^+ TILs; assay: Intratumoral injection of IFNα, TCF1^+PD-1^+ CD8^+ TILs; type: in vivo, mouse; conditions: IFNα 200 ng intratumoral, 48 h
Description: Tumor tissues were excised and digested with 2 mg/mL Collagenase A (Sigma, Cat #SCR136) and 1 mg/ml DNase I (Roche, Cat #11284932001) under 37° C., 150 rpm shaking speed for 45 min. Digested materials then were transferred to a 70 μm cell strainer to remove clumped cells. Digested cells were washed twice with FACs buffer and ready for flow cytometry analysis.

[9] = tested on: non-small cell lung cancer; assay: Earlier lines of therapy of trial patients 234008 and 211105 (case history); type: in vivo, human

Molecule: Nc1nc(Nc2ccc3c(c2)CC[C@@H](N2CCCC2)CC3)nn1-c1cc2c(nn1)-c1ccccc1CCC2 [BGB324, 1-(6,7-dihydro-5H-benzo[6,7]cyclohepta[1,2-c]pyridazin-3-yl)-N^3-((7-(S)-pyrrolidin-1-yl)-6,7,8,9-tetrahydro-5H-benzo[7]annulene-2-yl)-1H-1,2,4-triazole-3,5-diamine]
- secretion of Interferon type 1β (IFNβ) [1]: increased
- tumor growth control [2]: Neither single treatment resulted in tumor growth control
- TCF1^+ expression on CD8^+ T cells [3]: increased
- tumor sensitivity to therapy (tumor volume) [4]: resistant
- tumor sensitivity to therapy (tumor volume) [5]: resistant
- infiltration of TCF1+PD-1^+ CD8^+ T cells ([6]; flow cytometry, day 7 after treatment started): increased
- TCF1^+PD-1^+ CD8^+ T cell presence in the tumor ([6]; immunohistochemistry): enhanced
- distribution of CD8+ cells relative to tumor islands ([6]; immunohistochemistry): large population of CD8+ cells, but these are grouped together, excluded from the tumor islands
- enrichment of clonal expanded CD8^+ T cells (unique TCRs) [7]: enriched CD8^+ T cells expressing unique TCRs (clonal expanded) significantly
- enrichment of exhaustive effector CD8^+ T cells [7]: also enriched
- enrichment of stem like T cells [7]: also enriched

Molecule: IFNα [reference compound]
- TCF1^+ expression on CD8^+ T cells [3]: increased
- TCF1^+PD-1^+ cells among CD8^+ TILs after intratumoral injection [8]: phenocopied

Molecule: carboplatin and paclitaxel
- duration of response to first-line therapy before progression ([9]; patient 234008): 22 months
- response to first-line therapy ([9]; patient 234008, before enrolling in the study): partial response

Molecule: pembrolizumab: anti-PD-1 antibody, immune checkpoint inhibitor
- duration of clinical benefit before progression ([9]; patient 211105, monotherapy after first-line progression): 18 months
